{"source": "BindingDB's records for doi:10.1021/jm801322h", "about": "(Pfizer, 2009)", "biological_target": "T1, Gag-Pol polyprotein [588-1027] (Human immunodeficiency virus type 1 group M subtype B (isolate HXB2), UniProt P04585)", "T1 construct": "588-1027", "test": "Reverse Transcriptase Assay", "conditions": "pH 7.8; 37 °C", "procedure": "The inhibition of the RNA-dependent DNA polymerase activity of the HIV-1 reverse transcriptase enzyme was measured using a primer extension assay. The substrate-incorporated radioactivity was measured using the Topcount NXT with a reading time of 1 minute/well and IC50 were deduced from the dose response curves obtained.", "note": "pIC50: −log10 of the molar value."}
{"smiles": "CNCc1n[nH]c2cccc(Oc3cc(C#N)cc(C#N)c3)c12", "note": "[5-({3-[(methylamino)methyl]-1H-indazol-4-yl}oxy)benzene-1,3-dicarbonitrile]", "values": [{"measurement": "pIC50", "value": "< 4.52"}]}
